From US4910203A, “Pteridine compounds” (priority 1984, dated 1990)
Like-named read-outs stand apart in the source and are kept apart here.

How the values were obtained:
male Wistar rats [1] = assay: Diuresis test with individual pteridine compounds, intravenous, urine after 2.5 hours; format: in vivo; conditions: 2.5 μmol/kg i.v.; for K^+ -excretion: control 0.609; for Na^+ -excretion: control 0.83; for Volume of urine: control 7.37
Experimental: They were orally given 20 ml/kg of an 0.9% NaCl solution just before the test substance was administered intravenously. […] Injection was into the caudal vein under light ether anasthesia. As a rule six test animals were used per test. […] Analysis was performed as for the determination of potency given above. IA stands for 2,4,7-triamino-6-[4-(2-hydroxy-3-dimethylaminopropoxy)phenyl]-pteridine.

male Wistar rats [2] = conditions: furosemide 8.27 mg/kg i.v. alone; 1.5 hours; mean; control 5.0
Experimental: They were orally given 20 ml/kg of an 0.9% NaCl solution just before the test substance was administered intravenously. […] Injection was into the caudal vein under light ether anasthesia. As a rule six test animals were used per test. The animals were individually placed into diuresis cages and the urine was collected after 1.5 hours. Analysis was performed as for the determination of potency given above. IA stands for 2,4,7-triamino-6-[4-(2-hydroxy-3-dimethylaminopropoxy)phenyl]-pteridine.

male Wistar rats [3] = assay: Diuresis test: ED50 dose response, intravenous, urine electrolytes after 2.5 hours; format: in vivo; conditions: for ED50: Rattus norvegicus, iv, urine collected after 2.5 hours
Experimental: For the tests, male Wistar rats of about 130 g body weight from which food had been withheld for 18 hours were used. […] Intravenous administration for determining K^+ was at dosage intervals for the actiee substance of 0.05, 0.1, 0.2, 0.3, 0.6, 1, and 2 mg/kg: for determining Na^+ at dosage intervals of 0.5, 1, 2, 4, 8, 16 and 20 mg/kg. For the prior art substances compared, the same tests were made and these substances were further administered at 30 mg/kg and 100 mg/kg. Injection was into the caudal vein under light etherization. […] Peroral administration was by means of a stomach tube into the gastrointestinal tract.
Dose response curves were constructed by the use of non-linear regression analysis using the NONLIN computer program of C. Daniel and F. S. Wood in "Fitting Equations to Data" (J. Wiley & Sons, New York, 1980).
The characteristic quantity ED50 (potency) used in determining the diuretic activity is defined as the amount of active substance per kilogram of body weight required to produce a response in 50 percent of the subjects.

[4] = cited from earlier work
[5] = K^+ (potassium-sparing), read-out: ED50 K^+
[6] = Na^+ (natriuretic), read-out: ED50 Na^+

## Nc1nc(N)c2nc(-c3ccc(OCC(O)CN4CCCCC4)cc3)c(N)nc2n1 (centres unmarked) [IF, 2,4,7-Triamino-6-[4-(2-hydroxy-3-piperidinopropoxy)phenyl]-pteridine]
Male Wistar rats [1]
  K^+ -excretion: 0.191 mmol/kg
  Na^+ -excretion: 1.95 mmol/kg
  Volume of urine: 0.01017 L/kg

## CCN(CC)CC(O)COc1ccc(-c2nc3c(N)nc(N)nc3nc2N)cc1 (centres unmarked) [IE, 2,4,7-Triamino-6-[4-(2-hydroxy-3-diethylaminopropoxy)phenyl]-pteridine]
Male Wistar rats [1]
  K^+ -excretion: 0.163 mmol/kg
  Na^+ -excretion: 2.61 mmol/kg
  Volume of urine: 0.01102 L/kg

## CC(C)NCC(O)COc1ccc(-c2nc3c(N)nc(N)nc3nc2N)cc1 (centres unmarked) [IH, 2,4,7-Triamino-6-[4-(2-hydroxy-3-isopropylaminopropoxy)phenyl]-pteridine]
Male Wistar rats [1]
  K^+ -excretion: 0.161 mmol/kg
  Na^+ -excretion: 2.49 mmol/kg
  Volume of urine: 0.01474 L/kg

## CCCCNCC(O)COc1ccc(-c2nc3c(N)nc(N)nc3nc2N)cc1 (centres unmarked) [IJ, 2,4,7-Triamino-6-[4-(2-hydroxy-3-n-butylaminopropoxy)phenyl]-pteridine]
Male Wistar rats [1]
  K^+ -excretion: 0.176 mmol/kg
  Na^+ -excretion: 2.86 mmol/kg
  Volume of urine: 0.01859 L/kg

## CNCC(O)COc1ccc(-c2nc3c(N)nc(N)nc3nc2N)cc1 (centres unmarked) [IC, 2,4,7-Triamino-6-[4-(2-hydroxy-3-methylaminopropoxy)phenyl]-pteridine]
Male Wistar rats [1]
  K^+ -excretion: 0.211 mmol/kg
  Na^+ -excretion: 2.63 mmol/kg
  Volume of urine: 0.01585 L/kg

## Nc1nc(N)c2nc(-c3ccc(OCC(O)CN4CCOCC4)cc3)c(N)nc2n1 (centres unmarked) [ID, 2,4,7-Triamino-6-[4-(2-hydroxy-5-morpholinopropoxy)phenyl]-pteridine]
Male Wistar rats [1]
  K^+ -excretion: 0.237 mmol/kg
  Na^+ -excretion: 2.78 mmol/kg
  Volume of urine: 0.0193 L/kg

## CC(C)N(CC(O)COc1ccc(-c2nc3c(N)nc(N)nc3nc2N)cc1)C(C)C (centres unmarked) [IK, 2,4,7-Triamino-6-[4-(2-hydroxy-3-diisopropylaminopropoxy)phenyl]-pteridine]
Male Wistar rats [1]
  K^+ -excretion: 0.191 mmol/kg
  Na^+ -excretion: 2.08 mmol/kg
  Volume of urine: 0.01024 L/kg

## NS(=O)(=O)c1cc(C(=O)O)c(NCc2ccco2)cc1Cl [Furosemide, 4-chloro-N-furfuryl-5-sulfamoylanthranilic acid]
Male Wistar rats [2]
  Volume of urine: 0.0525 L/kg

## CN(C)CCCOc1ccc(-c2nc3c(N)nc(N)nc3nc2N)cc1 [DES-OH, 2,4,7-triamino-6-[4-(3-dimethylaminopropoxy)phenyl]-pteridine, reference compound]
Male Wistar rats [3]; [5]
  ED50: 0.54 µmol/kg
Male Wistar rats [3]; [6]
  ED50: 5.53 µmol/kg

## CCCCN(CCCC)CC(O)COc1ccc(-c2nc3c(N)nc(N)nc3nc2N)cc1 (centres unmarked) [IL, 2,4,7-Triamino-6-[4-(2-hydroxy-3-di-n-butylaminopropoxy)phenyl]-pteridine]
Male Wistar rats [1]
  K^+ -excretion: 0.191 mmol/kg
  Na^+ -excretion: 2.34 mmol/kg
  Volume of urine: 0.01376 L/kg

## CCNCC(O)COc1ccc(-c2nc3c(N)nc(N)nc3nc2N)cc1 (centres unmarked) [IB, 2,4,7-Triamino-6-[4-(2-hydroxy-3-ethylaminopropoxy)phenyl]-pteridine]
Male Wistar rats [1]
  K^+ -excretion: 0.161 mmol/kg
  Na^+ -excretion: 2.98 mmol/kg
  Volume of urine: 0.01878 L/kg

## Nc1nc(N)c2nc(-c3ccc(OCC(O)CN4CCCC4)cc3)c(N)nc2n1 (centres unmarked) [IG, 2,4,7-Triamino-6-[4-(2-hydroxy-3-pyrrolidinopropoxy)phenyl]-pteridine]
Male Wistar rats [1]
  K^+ -excretion: 0.172 mmol/kg
  Na^+ -excretion: 2.14 mmol/kg
  Volume of urine: 0.0133 L/kg

## Nc1nc(N)c2nc(-c3ccccc3)c(N)nc2n1 [Triamterene, 2,4,7-triamino-6-phenyl-pteridine, reference compound]
Male Wistar rats [3]; [5]
  ED50: 1.87 µmol/kg
Male Wistar rats [3]; [6]
  ED50: 4.4 µmol/kg
Male Wistar rats [1]
  K^+ -excretion: 0.402 mmol/kg
  Na^+ -excretion: 1.17 mmol/kg
  Volume of urine: 0.00796 L/kg

## CN(C)CC(O)COc1ccc(-c2nc3c(N)nc(N)nc3nc2N)cc1 (centres unmarked) [IA, 2,4,7-triamino-6-[4-(2-hydroxy-3-dimethylaminopropoxy)phenyl]-pteridine]
Male Wistar rats [3]; [5]
  ED50: 0.24 µmol/kg
Male Wistar rats [3]; Mg^+2 (magnesium-sparing), read-out: ED50 Mg^+2
  ED50: 0.4 µmol/kg
Male Wistar rats [3]; [6]
  ED50: 9.36 µmol/kg
Male Wistar rats [3]; i.v.
  diuretic efficacy (natriuretic, potassium- and magnesium-sparing properties): outstanding diuretic efficacy
Male Wistar rats [1]
  K^+ -excretion: 0.180 mmol/kg
  Na^+ -excretion: 2.78 mmol/kg
  Volume of urine: 0.01598 L/kg

## Nc1nc(N)c2nc(-c3ccc(OCCCCC(=O)O)cc3)c(N)nc2n1 [Val-O-TA, 2,4,7-triamino-6-[4-(4-carboxybutoxy)phenyl]-pteridine]
[4]; administered intravenously
  diuretic, natriuretic, and antikaliuretic activity: exhibit diuretic, natriuretic, and antikaliuretic activity
[4]; with Val-O-TA
  compensation of kaliuresis produced by furosemide: compensated practically fully
